Source: patent publication US20250326744A1, “PIPERAZINE DERIVATIVE OR SALT THEREOF, AND PHARMACEUTICAL COMPOSITION” (priority 2022, published 2025)
Structures can show the parent of a compound that is named as a salt.

Experiments:
[1] = tested on: mexB (PA) strain; experiment: Combinational effect with antibacterial agent against Pseudomonas aeruginosa (Test Examples 2 and 4): mexB (PA) strain with LVFX, TC or AZT at 1/4 MIC, EC99; type: cell-based; conditions: mexB (PA) strain, Test Example 4; for EC99, combinational effect with AZT, mexB (PA): combined with AZT at 1/4 MIC; for EC99, combinational effect with LVFX, mexB (PA): combined with LVFX at 1/4 MIC; for EC99, combinational effect with TC, mexB (PA): combined with TC at 1/4 MIC
Outline: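 P. aeruginosa mexB (PA) strain, lacking MexCD-OprJ, MexEF-OprN and MexXY and overexpressing MexAB-OprM, grown 16–20 h in CAMHB (10^4–5 CFU/well) with LVFX, TC or AZT at ¼ MIC plus test compound at 0–800 μM. Growth read as OD595; EC99 is the lowest compound concentration giving ≥99% growth inhibition.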

[2] = tested on: S-3769 strain; experiment: Combinational effect with antibacterial agent against Pseudomonas aeruginosa (Test Examples 2 and 4): S-3769 strain with AMK or GM at 1/4 MIC, EC99; type: cell-based; conditions: S-3769 strain, Test Example 4; for EC99, combinational effect with AMK, S-3769 strain: combined with AMK at 1/4 MIC; for EC99, combinational effect with GM, S-3769 strain: combined with GM at 1/4 MIC
Outline: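 P. aeruginosa S-3769 (clinical isolate, MexY overexpressed) grown 16–20 h in CAMHB, 10^4 to 5 CFU/well, with AMK or GM at ¼ MIC plus test compound 0–800 μM. Growth read as OD595; EC99 is the lowest compound concentration giving ≥99% growth inhibition.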

Row | SMILES | EC99, combinational effect with AZT, mexB (PA) [1] | EC99, combinational effect with LVFX, mexB (PA) [1] | EC99, combinational effect with TC, mexB (PA) [1] | EC99, combinational effect with AMK, S-3769 strain [2] | EC99, combinational effect with GM, S-3769 strain [2]
1 | CCSc1cc(F)ccc1CN1CCN(C(=O)[C@H](N)C2CCN(CCc3cc(Cl)ccc3-c3cccc(NC)c3)CC2)CC1 [Example 607, Hydrochloride of (R)-2-amino-2-(1-(2-(4-chloro-3′-(methylamino)-[1,1-biphenyl]-2-yl)ethyl)piperidin-4-yl)-1-(4-(2-(ethylthio)-4-fluorobenzyl)piperazin-1-yl)ethan-1-one] | S (EC99≤12.5 μM) | S (EC99≤12.5 μM) | S (EC99≤12.5 μM) | B (25 μM<EC99≤100 μM) | B (25 μM<EC99≤100 μM)
2 | CCSc1cc(F)ccc1CN1CCN(C(=O)[C@H](N)C2CCN(CCc3cscc3-c3ccccc3)CC2)CC1 [Example 608, Hydrochloride of (R)-2-amino-1-(4-(2-(ethylthio)-4-fluorobenzyl)piperazin-1-yl)-2-(1-(2-(4-phenylthiophen-3-yl)ethyl)piperidin-4-yl)ethan-1-one] | B (25 μM<EC99≤100 μM) | B (25 μM<EC99≤100 μM) | B (25 μM<EC99≤100 μM) | B (25 μM<EC99≤100 μM) | B (25 μM<EC99≤100 μM)
3 | CCSc1cc(F)ccc1CN1CCN(C(=O)[C@H](N)C2CCN(CCc3cc(Cl)ccc3-c3cc(O)cc(F)c3)CC2)CC1 [Example 609, (R)-2-amino-2-(1-(2-(4-chloro-3′-fluoro-5′-hydroxy-[1,1′-biphenyl]-2-yl)ethyl)piperidin-4-yl)-1-(4-(2-(ethylthio)-4-fluorobenzyl)piperazin-1-yl)ethan-1-one] | S (EC99≤12.5 μM) | S (EC99≤12.5 μM) | S (EC99≤12.5 μM) | S (EC99≤12.5 μM) | S (EC99≤12.5 μM)
4 | CSc1ccccc1CN1CCN(C(=O)[C@H](N)C2CCN(CCc3cc(Cl)ccc3-c3cc(O)cc(Cl)c3)CC2)CC1 [Example 610, (R)-2-amino-2-(1-(2-(3′-4-dichloro-5′-hydroxy-[1,1′-biphenyl]-2-yl)ethyl)piperidin-4-yl)-1-(4-(2-(methylthio)benzyl)piperazin-1-yl)ethan-1-one] | S (EC99≤12.5 μM) | S (EC99≤12.5 μM) | S (EC99≤12.5 μM) | S (EC99≤12.5 μM) | S (EC99≤12.5 μM)
5 | CSc1ccccc1CN1CCN(C(=O)[C@H](N)C2CCN(CCc3cc(Cl)ccc3-c3cccc(O)c3)CC2)CC1 [Example 611, Hydrochloride of (R)-2-amino-2-(1-(2-(4-chloro-3′-hydroxy-[1,1-biphenyl]-2-yl)ethyl)piperidin-4-yl)-1-(4-(2-(methylthio)benzyl)piperazin-1-yl)ethan-1-one] | S (EC99≤12.5 μM) | S (EC99≤12.5 μM) | S (EC99≤12.5 μM) | S (EC99≤12.5 μM) | B (25 μM<EC99≤100 μM)
6 | CSc1ccccc1CN1CCN(C(=O)[C@H](N)C2CCN(CCc3cc(Cl)ccc3-c3cc(O)ccc3F)CC2)CC1 [Example 612, (R)-2-amino-2-(1-(2-(4-chloro-2′-fluoro-5′-hydroxy-[1,1′-biphenyl]-2-yl)ethyl)piperidin-4-yl)-1-(4-(2-(methylthio)benzyl)piperazin-1-yl)ethan-1-one] | S (EC99≤12.5 μM) | S (EC99≤12.5 μM) | S (EC99≤12.5 μM) | S (EC99≤12.5 μM) | S (EC99≤12.5 μM)
7 | CCSc1cc(F)ccc1CN1CCN(C(=O)[C@H](N)C2CCN(CCc3cc(Cl)ccc3-c3cc(O)cc(Cl)c3)CC2)CC1 [Example 614, (R)-2-amino-2-(1-(2-(3′,4-dichloro-5′-hydroxy-[1,1′-biphenyl]-2-yl)ethyl)piperidin-4-yl)-1-(4-(2-(ethylthio)-4-fluorobenzyl)piperazin-1-yl)ethan-1-one] | S (EC99≤12.5 μM) | S (EC99≤12.5 μM) | S (EC99≤12.5 μM) | S (EC99≤12.5 μM) | S (EC99≤12.5 μM)
8 | CCSc1cc(F)ccc1CN1CCN(C(=O)[C@H](N)C2CCN(CCc3cc(Cl)ccc3-c3cc(O)ccc3F)CC2)CC1 [Example 615, (R)-2-amino-2-(1-(2-(4-chloro-2′-fluoro-5′-hydroxy-[1,1′-biphenyl]-2-yl)ethyl)piperidin-4-yl)-1-(4-(2-(ethylthio)-4-fluorobenzyl)piperazin-1-yl)ethan-1-one] | S (EC99≤12.5 μM) | S (EC99≤12.5 μM) | S (EC99≤12.5 μM) | S (EC99≤12.5 μM) | S (EC99≤12.5 μM)
9 | CCSc1cc(F)ccc1CN1CCN(C(=O)[C@H](N)C2CCN(CCc3cc(Cl)ccc3-c3cccc(O)c3Cl)CC2)CC1 [Example 616, (R)-2-amino-2-(1-(2-(2′,4-dichloro-3′-hydroxy-[1,1′-biphenyl]-2-yl)ethyl)piperidin-4-yl)-1-(4-(2-(ethylthio)-4-fluorobenzyl)piperazin-1-yl)ethan-1-one] | S (EC99≤12.5 μM) | S (EC99≤12.5 μM) | S (EC99≤12.5 μM) | S (EC99≤12.5 μM) | S (EC99≤12.5 μM)
10 | CSc1ccccc1CN1CCN(C(=O)[C@H](N)C2CCN(CCc3cc(Cl)ccc3-c3cc(O)cc(F)c3)CC2)CC1 [Example 617, (R)-2-amino-2-(1-(2-(4-chloro-3′-fluoro-5′-hydroxy-[1,1′-biphenyl]-2-yl)ethyl)piperidin-4-yl)-1-(4-(2-(methylthio)benzyl)piperazin-1-yl)ethan-1-one] | S (EC99≤12.5 μM) | S (EC99≤12.5 μM) | S (EC99≤12.5 μM) | S (EC99≤12.5 μM) | S (EC99≤12.5 μM)
11 | CSc1ccccc1CN1CCN(C(=O)[C@H](N)C2CCN(CCc3cc(Cl)ccc3-c3cc(O)ccc3Cl)CC2)CC1 [Example 618, (R)-2-amino-2-(1-(2-(2′,4-dichloro-5′-hydroxy-[1,1′-biphenyl]-2-yl)ethyl)piperidin-4-yl)-1-(4-(2-(methylthio)benzyl)piperazin-1-yl)ethan-1-one] | S (EC99≤12.5 μM) | S (EC99≤12.5 μM) | S (EC99≤12.5 μM) | S (EC99≤12.5 μM) | S (EC99≤12.5 μM)
12 | CCSc1cc(F)ccc1CN1CCN(C(=O)[C@H](N)C2CCN(CCc3cc(Cl)ccc3-c3cc(O)ccc3Cl)CC2)CC1 [Example 619, (R)-2-amino-2-(1-(2-(2′,4-dichloro-5′-hydroxy-[1,1′-biphenyl]-2-yl)ethyl)piperidin-4-yl)-1-(4-(2-(ethylthio)-4-fluorobenzyl)piperazin-1-yl)ethan-1-one] | S (EC99≤12.5 μM) | S (EC99≤12.5 μM) | S (EC99≤12.5 μM) | S (EC99≤12.5 μM) | S (EC99≤12.5 μM)
13 | CCSc1ccc(O)cc1CN1CCN(C(=O)[C@H](N)C2CCN(CCc3cc(Cl)ccc3-c3cc(O)cc(F)c3)CC2)CC1 [Example 620, (R)-2-amino-2-(1-(2-(4-chloro-3′-fluoro-5′-hydroxy-[1,1′-biphenyl]-2-yl)ethyl)piperidin-4-yl)-1-(4-(2-(ethylthio)-5-hydroxybenzyl)piperazin-1-yl)ethan-1-one] | S (EC99≤12.5 μM) | S (EC99≤12.5 μM) | S (EC99≤12.5 μM) | S (EC99≤12.5 μM) | S (EC99≤12.5 μM)
14 | CCSc1ccc(O)cc1CN1CCN(C(=O)[C@H](N)C2CCN(CCc3cc(Cl)ccc3-c3cc(O)ccc3F)CC2)CC1 [Example 621, (R)-2-amino-2-(1-(2-(4-chloro-2′-fluoro-5′-hydroxy-[1,1′-biphenyl]-2-yl)ethyl)piperidin-4-yl)-1-(4-(2-(ethylthio)-5-hydroxybenzyl)piperazin-1-yl)ethan-1-one] | S (EC99≤12.5 μM) | S (EC99≤12.5 μM) | S (EC99≤12.5 μM) | S (EC99≤12.5 μM) | S (EC99≤12.5 μM)
